Values after ≈ are worked out from the molar mass of the structure shown.
Assays:
[1] = Hemolytic activity in rabbit RBC incubated for 1 hr by absorbance based microplate reader assay; assay type: toxicity, cell-based, Oryctolagus cuniculus, Erythrocyte; settings: rabbit red blood cells (erythrocytes)
Staphylococcus aureus [2] = assay: Antimicrobial activity against methicillin-resistant Staphylococcus aureus N315 assessed as bacterial growth inhibition incubated for 24 hrs by Muller Hinton broth based dilution assay; assay type: functional
Candida albicans [3] = assay: Antimicrobial activity against Candida albicans ATCC10231 assessed as fungal growth inhibition incubated for 48 hrs by Sabouraud Dextrose broth based dilution assay; assay type: functional
Staphylococcus aureus [4] = assay: Antimicrobial activity against methicillin-resistant Staphylococcus aureus NCTC10442 assessed as bacterial growth inhibition incubated for 24 hrs by Muller Hinton broth based dilution assay; assay type: functional
Staphylococcus aureus [5] = assay: Antimicrobial activity against Staphylococcus aureus ATCC29213 assessed as bacterial growth inhibition incubated for 24 hrs by Muller Hinton broth based dilution assay; assay type: functional
Escherichia coli = assay: Antimicrobial activity against Escherichia coli ATCC25922 assessed as bacterial growth inhibition incubated for 24 hrs by Muller Hinton broth based dilution assay; assay type: functional
Candida albicans [6] = assay: Antimicrobial activity against Candida albicans CMCC98001 assessed as fungal growth inhibition incubated for 48 hrs by Sabouraud Dextrose broth based dilution assay; assay type: functional

CC(C)=CCC/C(C)=C/CN1CCCc2cc(OCCCCCCCCNC(=N)N)ccc21
HC50 at 1 h [1]: > 200 µg/mL | MIC (Staphylococcus aureus [2]): 3.12 µg/mL (≈ 6.87 µM) | MIC (Candida albicans [3]): 0.78 µg/mL (≈ 1.72 µM) | MIC (Staphylococcus aureus [4]): 1.56 µg/mL (≈ 3.43 µM) | MIC (Staphylococcus aureus [5]): 3.12 µg/mL (≈ 6.87 µM) | MIC (Escherichia coli): 25 µg/mL (≈ 55 µM) | MIC (Candida albicans [6]): 0.78 µg/mL (≈ 1.72 µM)

CCCCCN1CCCc2cc(O)ccc21
HC50 at 1 h [1]: > 200 µg/mL | MIC (Staphylococcus aureus [2]): 25 µg/mL (≈ 114 µM) | MIC (Candida albicans [3]): > 50 µg/mL | MIC (Staphylococcus aureus [4]): 25 µg/mL (≈ 114 µM) | MIC (Staphylococcus aureus [5]): 50 µg/mL (≈ 228 µM) | MIC (Escherichia coli): > 50 µg/mL | MIC (Candida albicans [6]): > 50 µg/mL

CCCCCCCCCN1CCCc2cc(OCC(=O)OCC)ccc21
HC50 at 1 h [1]: > 200 µg/mL | MIC (Staphylococcus aureus [2]): > 50 µg/mL | MIC (Candida albicans [3]): > 50 µg/mL | MIC (Staphylococcus aureus [4]): > 50 µg/mL | MIC (Staphylococcus aureus [5]): > 50 µg/mL | MIC (Escherichia coli): > 50 µg/mL | MIC (Candida albicans [6]): > 50 µg/mL

CCCN1CCCc2cc(O)ccc21
HC50 at 1 h [1]: > 200 µg/mL | MIC (Staphylococcus aureus [2]): > 50 µg/mL | MIC (Candida albicans [3]): > 50 µg/mL | MIC (Staphylococcus aureus [4]): > 50 µg/mL | MIC (Staphylococcus aureus [5]): > 50 µg/mL | MIC (Escherichia coli): > 50 µg/mL | MIC (Candida albicans [6]): > 50 µg/mL

CC(C)=CCN1CCCc2cc(OCCCCNC(=N)N)ccc21
HC50 at 1 h [1]: > 200 µg/mL | MIC (Staphylococcus aureus [2]): 1.56 µg/mL (≈ 4.72 µM) | MIC (Candida albicans [3]): > 50 µg/mL | MIC (Staphylococcus aureus [4]): 3.12 µg/mL (≈ 9.46 µM) | MIC (Staphylococcus aureus [5]): 3.12 µg/mL (≈ 9.46 µM) | MIC (Escherichia coli): 25 µg/mL (≈ 75.6 µM) | MIC (Candida albicans [6]): > 50 µg/mL

CC(C)=CCN1CCCc2cc(OCCCCNCCN(CCN)CCN)ccc21
HC50 at 1 h [1]: > 200 µg/mL | MIC (Staphylococcus aureus [2]): 6.25 µg/mL (≈ 15 µM) | MIC (Candida albicans [3]): > 50 µg/mL | MIC (Staphylococcus aureus [4]): 6.25 µg/mL (≈ 15 µM) | MIC (Staphylococcus aureus [5]): 12.5 µg/mL (≈ 29.9 µM) | MIC (Escherichia coli): 50 µg/mL (≈ 120 µM) | MIC (Candida albicans [6]): 50 µg/mL (≈ 120 µM)

CCN(CC)CCCCOc1ccc2c(c1)CCCN2CC=C(C)C
HC50 at 1 h [1]: > 200 µg/mL | MIC (Staphylococcus aureus [2]): > 50 µg/mL | MIC (Candida albicans [3]): > 50 µg/mL | MIC (Staphylococcus aureus [4]): > 50 µg/mL | MIC (Staphylococcus aureus [5]): > 50 µg/mL | MIC (Escherichia coli): > 50 µg/mL | MIC (Candida albicans [6]): > 50 µg/mL

CCCCCN1CCCc2cc(OCCCCBr)ccc21
HC50 at 1 h [1]: > 200 µg/mL | MIC (Staphylococcus aureus [2]): 25 µg/mL (≈ 70.6 µM) | MIC (Candida albicans [3]): 50 µg/mL (≈ 141 µM) | MIC (Staphylococcus aureus [4]): 25 µg/mL (≈ 70.6 µM) | MIC (Staphylococcus aureus [5]): 25 µg/mL (≈ 70.6 µM) | MIC (Escherichia coli): > 50 µg/mL | MIC (Candida albicans [6]): 50 µg/mL (≈ 141 µM)

CCCCCN1CCCc2cc(OCC(=O)OCC)ccc21
HC50 at 1 h [1]: > 200 µg/mL | MIC (Staphylococcus aureus [2]): > 50 µg/mL | MIC (Candida albicans [3]): > 50 µg/mL | MIC (Staphylococcus aureus [4]): > 50 µg/mL | MIC (Staphylococcus aureus [5]): > 50 µg/mL | MIC (Escherichia coli): > 50 µg/mL | MIC (Candida albicans [6]): > 50 µg/mL

CC(C)=CCN1CCCc2cc(OCCCCCCBr)ccc21
HC50 at 1 h [1]: > 200 µg/mL | MIC (Staphylococcus aureus [2]): 25 µg/mL (≈ 65.7 µM) | MIC (Candida albicans [3]): 50 µg/mL (≈ 131 µM) | MIC (Staphylococcus aureus [4]): 25 µg/mL (≈ 65.7 µM) | MIC (Staphylococcus aureus [5]): 50 µg/mL (≈ 131 µM) | MIC (Escherichia coli): > 50 µg/mL | MIC (Candida albicans [6]): 50 µg/mL (≈ 131 µM)

N=C(N)NCCCCOc1ccc2c(c1)CCCN2CCCC(F)(F)F
HC50 at 1 h [1]: > 200 µg/mL | MIC (Staphylococcus aureus [2]): 6.25 µg/mL (≈ 16.8 µM) | MIC (Candida albicans [3]): > 50 µg/mL | MIC (Staphylococcus aureus [4]): 6.25 µg/mL (≈ 16.8 µM) | MIC (Staphylococcus aureus [5]): 6.25 µg/mL (≈ 16.8 µM) | MIC (Escherichia coli): 25 µg/mL (≈ 67.1 µM) | MIC (Candida albicans [6]): > 50 µg/mL

CNCCCCOc1ccc2c(c1)CCCN2CC=C(C)C
HC50 at 1 h [1]: > 200 µg/mL | MIC (Staphylococcus aureus [2]): 6.25 µg/mL (≈ 20.7 µM) | MIC (Candida albicans [3]): 50 µg/mL (≈ 165 µM) | MIC (Staphylococcus aureus [4]): 12.5 µg/mL (≈ 41.3 µM) | MIC (Staphylococcus aureus [5]): 25 µg/mL (≈ 82.7 µM) | MIC (Escherichia coli): 25 µg/mL (≈ 82.7 µM) | MIC (Candida albicans [6]): 50 µg/mL (≈ 165 µM)

CC(C)=CCN1CCCc2cc(OCCCNC(=N)N)ccc21
HC50 at 1 h [1]: > 200 µg/mL | MIC (Staphylococcus aureus [2]): 6.25 µg/mL (≈ 19.8 µM) | MIC (Candida albicans [3]): > 50 µg/mL | MIC (Staphylococcus aureus [4]): 6.25 µg/mL (≈ 19.8 µM) | MIC (Staphylococcus aureus [5]): 6.25 µg/mL (≈ 19.8 µM) | MIC (Escherichia coli): 50 µg/mL (≈ 158 µM) | MIC (Candida albicans [6]): > 50 µg/mL

CCCCCCCN1CCCc2cc(OCC(=O)OCC)ccc21
HC50 at 1 h [1]: > 200 µg/mL | MIC (Staphylococcus aureus [2]): > 50 µg/mL | MIC (Candida albicans [3]): > 50 µg/mL | MIC (Staphylococcus aureus [4]): > 50 µg/mL | MIC (Staphylococcus aureus [5]): > 50 µg/mL | MIC (Escherichia coli): > 50 µg/mL | MIC (Candida albicans [6]): > 50 µg/mL

CCCNCCCCOc1ccc2c(c1)CCCN2CC=C(C)C
HC50 at 1 h [1]: > 200 µg/mL | MIC (Staphylococcus aureus [2]): 25 µg/mL (≈ 75.6 µM) | MIC (Candida albicans [3]): > 50 µg/mL | MIC (Staphylococcus aureus [4]): 25 µg/mL (≈ 75.6 µM) | MIC (Staphylococcus aureus [5]): 50 µg/mL (≈ 151 µM) | MIC (Escherichia coli): > 50 µg/mL | MIC (Candida albicans [6]): > 50 µg/mL

CC(C)=CCC/C(C)=C/CN1CCCc2cc(O)ccc21
HC50 at 1 h [1]: > 200 µg/mL | MIC (Staphylococcus aureus [2]): 12.5 µg/mL (≈ 43.8 µM) | MIC (Candida albicans [3]): 50 µg/mL (≈ 175 µM) | MIC (Staphylococcus aureus [4]): 12.5 µg/mL (≈ 43.8 µM) | MIC (Staphylococcus aureus [5]): 12.5 µg/mL (≈ 43.8 µM) | MIC (Escherichia coli): > 50 µg/mL | MIC (Candida albicans [6]): 25 µg/mL (≈ 87.6 µM)

CCCCCCCCCN1CCCc2cc(OCCCCCCCCBr)ccc21
HC50 at 1 h [1]: > 200 µg/mL | MIC (Staphylococcus aureus [2]): 25 µg/mL (≈ 53.6 µM) | MIC (Candida albicans [3]): > 50 µg/mL | MIC (Staphylococcus aureus [4]): 50 µg/mL (≈ 107 µM) | MIC (Staphylococcus aureus [5]): 25 µg/mL (≈ 53.6 µM) | MIC (Escherichia coli): > 50 µg/mL | MIC (Candida albicans [6]): > 50 µg/mL

CCCN(CCC)CCCCOc1ccc2c(c1)CCCN2CC=C(C)C
HC50 at 1 h [1]: > 200 µg/mL | MIC (Staphylococcus aureus [2]): 25 µg/mL (≈ 67.1 µM) | MIC (Candida albicans [3]): > 50 µg/mL | MIC (Staphylococcus aureus [4]): 50 µg/mL (≈ 134 µM) | MIC (Staphylococcus aureus [5]): 25 µg/mL (≈ 67.1 µM) | MIC (Escherichia coli): > 50 µg/mL | MIC (Candida albicans [6]): > 50 µg/mL

CCCCCCCN1CCCc2cc(OCC(=O)N[C@@H](CCCNC(=N)N)C(=O)N[C@@H](CCCNC(=N)N)C(=O)OC)ccc21
HC50 at 1 h [1]: > 200 µg/mL | MIC (Staphylococcus aureus [2]): 3.12 µg/mL (≈ 4.95 µM) | MIC (Candida albicans [3]): > 50 µg/mL | MIC (Staphylococcus aureus [4]): 3.12 µg/mL (≈ 4.95 µM) | MIC (Staphylococcus aureus [5]): 6.25 µg/mL (≈ 9.89 µM) | MIC (Escherichia coli): 50 µg/mL (≈ 79.1 µM) | MIC (Candida albicans [6]): 50 µg/mL (≈ 79.1 µM)

CC(C)=CCN1CCCc2cc(O)ccc21
HC50 at 1 h [1]: > 200 µg/mL | MIC (Staphylococcus aureus [2]): 50 µg/mL (≈ 230 µM) | MIC (Candida albicans [3]): > 50 µg/mL | MIC (Staphylococcus aureus [4]): 50 µg/mL (≈ 230 µM) | MIC (Staphylococcus aureus [5]): 50 µg/mL (≈ 230 µM) | MIC (Escherichia coli): > 50 µg/mL | MIC (Candida albicans [6]): > 50 µg/mL

CCCCCN1CCCc2cc(OCC(=O)N[C@@H](CCCNC(=N)N)C(=O)OC)ccc21
HC50 at 1 h [1]: > 200 µg/mL | MIC (Staphylococcus aureus [2]): 25 µg/mL (≈ 55.9 µM) | MIC (Candida albicans [3]): > 50 µg/mL | MIC (Staphylococcus aureus [4]): 25 µg/mL (≈ 55.9 µM) | MIC (Staphylococcus aureus [5]): 50 µg/mL (≈ 112 µM) | MIC (Escherichia coli): > 50 µg/mL | MIC (Candida albicans [6]): > 50 µg/mL
